# Measurements taken from patent US6380198B1 (Laboratoire Medidom S.A., priority 1997, dated 2002).
# pIC50: −log10 of the molar value. Values joined by “and” are separate entries in the source; they are usually repeats but may differ in a detail not shown here. Identical values can stand only once.
# Key:
# [1] = system: intraocular pressure of rabbits showing normal baseline intraocular pressure; test: Intraocular pressure in rabbits with normal intraocular pressure after topical instillation; format: in vivo, rabbit (Vienna Blue, pigmented); details: Table 1, 50 μl eye-drops: 0.050% flunarizine, 0.056% verapamil, 0.051% diltiazem, 0.043% nifedipine
# [2] = system: intraocular pressure of rabbits with ocular hypertension; test: Intraocular pressure in rabbits with ocular hypertension induced by α-chymotrypsin; format: in vivo, rabbit (Vienna Blue, pigmented); details: Table 3, hypertensive rabbits, 50 μl eye-drops: 0.050% flunarizine, 0.056% verapamil, 0.051% diltiazem, 0.043% nifedipine
# Protocol: Rabbits of the same type as those described in the previous section were used for the following tests.
# In the rabbit, the injection of this enzyme in the posterior chamber causes, after one month from the administration, an effect of ocular hypertension.
# At the end of the quarantine period the rabbits were anaesthetised by intramuscular administration of ketamine hydrochloride and xylazine hydrochloride (RBI). The right eye was gently pushed outwardly after instilling 25 μl of Novesine® eye-drops, containing oxybuprocaine as an anaesthetic; then, a sterile solution of σ-chymotrypsin (SIGMA, Milan; 150 units in 100 μl of physiologic sterile solution) was injected in the posterior chamber of the right eye by means of a 30G sterile needle. After the administration of the enzyme, the eye was thoroughly washed with physiologic sterile solution in order to remove any traces of α-chymotrypsin which could damage the ocular tissues. Then, 2 drops of a commercial ophthalmic antibiotic solution (Colbiocin®, SIFI S.p.A., containing chloramphenicol, rolitetracycline, colistin methanesulphonate) were instilled. The treatment was carried out 3 times a day (at 8.00 a.m., 12.00 a.m. and 6.00 p.m.) for one week after the administration of α-chymotrypsin. The rabbits were employed in the tests after one month from the induction of ocular hypertension by means of the enzyme.
# The rabbits, divided also in this case in groups of 4 animals, were treated by instillation of 50 μl of the product under test in the right conjunctival fornix.
# The intraocular pressure in the treated eye was measured, according to the same procedure as in the previous tests, 15 minutes before the instillation of the eye-drops and 30, 60, 90, 120, 180 and 240 minutes after. The values obtained were statistically analysed according to the criteria mentioned in the foregoing.
# The experimental conditions were exactly the same as before.
# [3] = molecular target: T1, σ-1 receptors (Oryctolagus cuniculus, UniProt G1SD54); test: Inhibition of 3H(+)-N-allyl-nor-methazocine binding to irido-ciliary body membranes; set-up: species or system rabbit (New Zealand albino); details: rabbit irido-ciliary body P2 membranes, 300 μg protein, 37° C., 150 minutes, duplicate
# T1 construct: cell membranes obtained from the irido-ciliary body complex; from tissue; host or cells: rabbit irido-ciliary body, P2 membrane fraction
# T1 sequence (G1SD54 1-223): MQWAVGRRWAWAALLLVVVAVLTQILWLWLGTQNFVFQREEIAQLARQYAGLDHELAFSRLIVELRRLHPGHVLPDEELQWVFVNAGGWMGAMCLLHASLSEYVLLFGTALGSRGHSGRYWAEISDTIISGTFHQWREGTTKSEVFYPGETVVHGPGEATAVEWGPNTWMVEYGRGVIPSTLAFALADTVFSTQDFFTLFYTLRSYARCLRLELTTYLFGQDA
# Protocol: The receptor binding technique was carried out on cell membranes obtained from the irido-ciliary body complex explanted, after sacrifice, from male albino rabbits of the New Zealand strain (Charles River Italiana, of Calco (CO)). The tissue was homogenised in buffer and the P2, fraction, rich in cell membrane proteins, was isolated. […] The La total protein concentration was determined with the Lowry method.
# The non specific binding was evaluated in presence of haloperidol.
# All tests were carried out in duplicate. The reaction was maintained at 37° C. for 150 minutes, followed by filtration on WhatmannGF/B filters. The radioactivity left on the filters was measured by liquid scintillation spectrometry.
# [4] = system: cornea (corneal thickness); details: rabbit, in vivo
# Protocol: The evaluation of the thickness of the cornea was carried out ecographically by means of a UBM System 840 (Humphrey Instruments, San Leandro, Calif., USA). […] The software incorporated allows to modify the focalisation depth of the ultrasound beam, and to capture the image while varying its amplification.
# The animals employed in this test were of the same type as those described in the foregoing, and were treated in the same way. The test was carried out, after having anaesthetised the animal (with ketamine hydrochloride and xylazine hydrochloride), by placing into contact with the eyeball tiny cups filled in with a coupling means (ultrasound gel).
# [5] = average ± S.D. of 4 rabbits, 30 min after instillation
# [6] = average ± S.D. of 4 rabbits, 60 min after instillation
# [7] = average ± S.D. of 4 rabbits, 90 min after instillation
# [8] = average ± S.D. of 4 rabbits, 120 min after instillation
# [9] = average ± S.D. of 4 rabbits, 180 min after instillation
# [10] = average ± S.D. of 4 rabbits, 240 min after instillation
# [11] = average ± S.D. of 4 rabbits, time 0 = 15 min before instillation (baseline)
# [12] = individual rabbit, right eye, 30 min after instillation
# [13] = individual rabbit, right eye, 60 min after instillation
# [14] = individual rabbit, right eye, 90 min after instillation
# [15] = individual rabbit, right eye, 120 min after instillation
# [16] = individual rabbit, right eye, 180 min after instillation
# [17] = individual rabbit, right eye, 240 min after instillation
# [18] = individual rabbit, right eye, time 0 = 15 min before instillation (baseline)
smiles,measurement,setting,value
COC(=O)C1=C(C)NC(C)=C(C(=O)OC)C1c1ccccc1[N+](=O)[O-] [nifedipine],"Intraocular pressure (mmHg) at the time (min): 30, average ± S.D.",[1]; [5],14.7 ± 1.2 mmHg
same,"Intraocular pressure (mmHg) at the time (min): 60, average ± S.D.",[1]; [6],13.7 ± 0.9 mmHg
same,"Intraocular pressure (mmHg) at the time (min): 90, average ± S.D.",[1]; [7],15.5 ± 0.6 mmHg
same,"Intraocular pressure (mmHg) at the time (min): 120, average ± S.D.",[1]; [8],16.0 ± 1.5 mmHg
same,"Intraocular pressure (mmHg) at the time (min): 180, average ± S.D.",[1]; [9],16.5 ± 1.7 mmHg
same,"Intraocular pressure (mmHg) at the time (min): 240, average ± S.D.",[1]; [10],16 ± 0 mmHg
same,"Intraocular pressure (mmHg) at the time (min): 0, average ± S.D.",[1]; [11],15.7 ± 1.7 mmHg
same,Intraocular pressure (mmHg) at the time (min): 30,[1]; [12],15 mmHg (2×) and 13 mmHg and 16 mmHg
same,Intraocular pressure (mmHg) at the time (min): 60,[1]; [13],14 mmHg and 13 mmHg (2×) and 15 mmHg
same,Intraocular pressure (mmHg) at the time (min): 90,[1]; [14],16 mmHg (2×) and 15 mmHg (2×)
same,Intraocular pressure (mmHg) at the time (min): 120,[1]; [15],16 mmHg
same,Intraocular pressure (mmHg) at the time (min): 180,[1]; [16],17 mmHg (2×) and 15 mmHg (2×)
same,Intraocular pressure (mmHg) at the time (min): 240,[1]; [17],17 mmHg (2×) and 14 mmHg and 18 mmHg
same,Intraocular pressure (mmHg) at the time (min): 0,[1]; [18],16 mmHg and 15 mmHg and 14 mmHg and 18 mmHg
same,"Intraocular pressure (mmHg) at the time (min): 30, average ± S.D.",[2]; [5],47.7 ± 7.18 mmHg
same,"Intraocular pressure (mmHg) at the time (min): 60, average ± S.D.",[2]; [6],46.75 ± 6.13 mmHg
same,"Intraocular pressure (mmHg) at the time (min): 90, average ± S.D.",[2]; [7],46.5 ± 6.19 mmHg
same,"Intraocular pressure (mmHg) at the time (min): 120, average ± S.D.",[2]; [8],47.0 ± 5.47 mmHg
same,"Intraocular pressure (mmHg) at the time (min): 180, average ± S.D.",[2]; [9],48.00 ± 4.98 mmHg
same,"Intraocular pressure (mmHg) at the time (min): 240, average ± S.D.",[2]; [10],48.00 ± 4.96 mmHg
same,"Intraocular pressure (mmHg) at the time (min): 0, average ± S.D.",[2]; [11],48.0 ± 5.47 mmHg
same,Intraocular pressure (mmHg) at the time (min): 30,[2]; [12],55 mmHg and 52 mmHg and 45 mmHg and 39 mmHg
same,Intraocular pressure (mmHg) at the time (min): 60,[2]; [13],53 mmHg and 50 mmHg and 45 mmHg and 39 mmHg
same,Intraocular pressure (mmHg) at the time (min): 90,[2]; [14],52 mmHg and 50 mmHg and 46 mmHg and 38 mmHg
same,Intraocular pressure (mmHg) at the time (min): 120,[2]; [15],53 mmHg and 49 mmHg and 46 mmHg and 40 mmHg
same,Intraocular pressure (mmHg) at the time (min): 180,[2]; [16],54 mmHg and 48 mmHg and 45 mmHg and 41 mmHg
same,Intraocular pressure (mmHg) at the time (min): 240,[2]; [17],54 mmHg and 49 mmHg and 47 mmHg and 42 mmHg
same,Intraocular pressure (mmHg) at the time (min): 0,[2]; [18],54 mmHg and 50 mmHg and 47 mmHg and 41 mmHg
same,pIC50,[3],< 5.00
same,"Corneal swelling / alteration of corneal thickness, in words",[4],No significant effect
